Reference: PMC11195807, “Development of a multi-targeted chemotherapeutic approach based on G-quadruplex stabilisation and carbonic anhydrase inhibition” (Journal of Enzyme Inhibition and Medicinal Chemistry, 2024)
Structures can show the parent of a compound that is named as a salt.

Assays:
GQ structures = assay: BG4 immunofluorescence of GQ foci, HeLa cells in normoxia; assay type: cell-based; details: 24 h, 35.0 µM S-4,0, 40.0 µM C-4,2, 37.5 µM C-5,2, 2 µM RHPS4, over DMSO
Source text: After measuring the viability of HeLa cells upon treatment with the newly synthesised MTDLs mentioned above, we probed the capability of the three most cytotoxic ones (S-4,0, C-4,2, and C-5,2) to affect the formation of GQ structures by immunofluorescence (IF) microscopy, using the BG4 antibody that selectively recognises the GQ structures. As it can be noticed in Figure 6, the fluorescence intensity of the total number of GQ foci increased by around 30% after treatment with both the coumarin derivative C-4,2 and the reference GQ binder RHPS4, whereas it was not affected by S-4,0 and C-5,2. […] On the contrary, the levels of GQ structures were influenced neither by the treatment with the sulphonamide S-4,0 nor by the coumarin C-5,2, despite their ability to thermally stabilise some GQ-forming sequences in vitro.
Figure 6. (A) Representative fields showing G4 foci formation detected by immunofluorescence in HeLa cells treated for 24 h with 35.0 µM S-4,0, 40.0 µM C-4,2, and 37.5 µM C-5,2 or an equivalent amount of vehicle (0.1% DMSO). As a positive control, cells were treated with 2 µM RHPS4 (a well-established GQ ligand)[68] for 24 h. Scale bar: 10 µm. Upper panels: the merged channels of BG4-stained GQ structures (magenta) and Hoechst-counterstained nuclei (grey) are reported. Lower panels: enlargements from the pictures in the upper panels. (B) Quantitative analysis of the fluorescence intensity of the total number of GQ foci. An average of 50 cells were screened for each condition and the results are expressed as a fold change of fluorescence intensity (anti-GQ signal) over the negative control (DMSO). Histograms show the mean ± SD of three independent experiments. The statistical significance was calculated using a one-way ANOVA test on GraphPad Prism 8.0.2 (ns: not significant, **: p < 0.01).
For the IF experiments in the presence of normal oxygen levels, HeLa cells were seeded on sterile coverslips, in a 24-well plate, at a density of 90,000 cells per well, and incubated overnight. Then, cells were treated with a sublethal concentration of each investigated MTDL or an equivalent amount of vehicle (0.1% DMSO), for 24 h. As positive control, cells were exposed for 24 h to 2 µM RHPS4. As regards the IF experiments under hypoxic conditions, HeLa were seeded on sterile coverslips, in a 24-well plate, at a density of 50,000 cells per well, and incubated overnight. […] From there, the cellular and nuclear foci were segmented, and their number or fluorescence intensity was quantified by using the Image Analysis package of ZEISS ZEN 3.1 software.

melting point [°C] | SMILES | increase of fluorescence intensity of the total number of GQ foci (GQ structures)
– | COS(=O)(=O)[O-].Cc1cc2c3c([n+](C)c4ccc(F)cc4c3c1)-c1cc(F)ccc1N2C [RHPS4, reference compound] | around 30%
280 to 282 | COc1ccc2cc3[n+](cc2c1OCc1cn(-c2ccc4c(C)cc(=O)oc4c2)nn1)CCc1cc2c(cc1-3)OCO2 (as salt: phosphate) [Compound 45, 10-Methoxy-9-((1–(4-methyl-2-oxo-2H-chromen-7-yl)-1H-1,2,3-triazol-4-yl)methoxy)-5,6-dihydro-[1,3]dioxolo[4,5-g]isoquinolino[3,2-a]isoquinolin-7-ium hexafluorophosphate] | –
117 to 118 | COc1ccc2cc3[n+](cc2c1OCc1cn(CCCOc2ccc4ccc(=O)oc4c2)nn1)CCc1cc2c(cc1-3)OCO2 (as salt: phosphate) [Compound 42, 10-Methoxy-9-((1–(3-((2-oxo-2H-chromen-7-yl)oxy)propyl)-1H-1,2,3-triazol-4-yl)methoxy)-5,6-dihydro-[1,3]dioxolo[4,5-g]isoquinolino[3,2-a]isoquinolin-7-ium hexafluorophosphate] | –
